Measured values as given in ChEMBL document CHEMBL1127385, “Synthesis and diuretic activity of alkyl- and arylguanidine analogs of N,N'-dicyclohexyl-4-morpholinecarboxamidine in rats and dogs” (J Med Chem, 1994).
Each block holds one molecule with its values, some of them ahead of it.

Legend:
Rattus norvegicus [1] = assay: Total electrolytic excretion of sodium in urine of rats after peroral administration of 21.7 uM/Kg of drug; type: ADME, organism-based; conditions: in vivo, po
Rattus norvegicus [2] = assay: Ratio of Total electrolytic excretion of sodium and potassium in urine of rats after peroral administration of 217 uM/Kg of drug; type: ADME, organism-based; conditions: in vivo, po
Rattus norvegicus [3] = assay: Ratio of Total electrolytic excretion of sodium and potassium in urine of rats after peroral administration of 65.2 uM/Kg of drug; type: ADME, organism-based; conditions: in vivo, po
Rattus norvegicus [4] = assay: Total electrolytic excretion of potassium in urine of rats after peroral administration of 65.2 uM/Kg of drug; type: ADME, organism-based; conditions: in vivo, po
Rattus norvegicus [5] = assay: Total electrolytic excretion of sodium in urine of rats after peroral administration of 217 uM/Kg of drug; type: ADME, organism-based; conditions: in vivo, po
Rattus norvegicus [6] = assay: Tested for the diuretic activity by measuring the urinary volume after peroral administering 21.7 uM/Kg of drug in rats; type: ADME, organism-based, Urine; conditions: in vivo, po
Rattus norvegicus [7] = assay: Ratio of Total electrolytic excretion of sodium and potassium in urine of rats after peroral administration of 21.7 uM/Kg of drug; type: ADME, organism-based; conditions: in vivo, po
Rattus norvegicus [8] = assay: Total electrolytic excretion of chlorine in urine of rats after peroral administration of 65.2 uM/Kg of drug; type: ADME, organism-based; conditions: in vivo, po
Rattus norvegicus [9] = assay: Total electrolytic excretion of chlorine in urine of rats after peroral administration of 21.7 uM/Kg of drug; type: ADME, organism-based; conditions: in vivo, po
Rattus norvegicus [10] = assay: Tested for the diuretic activity by measuring the urinary volume after peroral administering 217 uM/Kg of drug in rats; type: ADME, organism-based, Urine; conditions: in vivo, po
Rattus norvegicus [11] = assay: Total electrolytic excretion of potassium in urine of rats after peroral administration of 21.7 uM/Kg of drug; type: ADME, organism-based; conditions: in vivo, po
Rattus norvegicus [12] = assay: Tested for the diuretic activity by measuring the urinary volume after peroral administering 65.2 uM/Kg of drug in rats; type: ADME, organism-based, Urine; conditions: in vivo, po
Rattus norvegicus [13] = assay: Total electrolytic excretion of sodium in urine of rats after peroral administration of 65.2 uM/Kg of drug; type: ADME, organism-based; conditions: in vivo, po
Rattus norvegicus [14] = assay: Total electrolytic excretion of potassium in urine of rats after peroral administration of 217 uM/Kg of drug; type: ADME, organism-based; conditions: in vivo, po
Rattus norvegicus [15] = assay: Total electrolytic excretion of chlorine in urine of rats after peroral administration of 217 uM/Kg of drug; type: ADME, organism-based; conditions: in vivo, po
Rattus norvegicus [16] = assay: Total electrolytic excretion of chlorine in urine of rats after peroral administration of 239 uM/Kg of drug; type: ADME, organism-based; conditions: in vivo, po
Rattus norvegicus [17] = assay: Tested for the diuretic activity by measuring the urinary volume after peroral administering 71.8 uM/Kg of drug in rats; type: ADME, organism-based, Urine; conditions: in vivo, po
Rattus norvegicus [18] = assay: Total electrolytic excretion of potassium in urine of rats after peroral administration of 239 uM/Kg of drug; type: ADME, organism-based; conditions: in vivo, po
Rattus norvegicus [19] = assay: Ratio of Total electrolytic excretion of sodium and potassium in urine of rats after peroral administration of 23.9 uM/Kg of drug; type: ADME, organism-based; conditions: in vivo, po
Rattus norvegicus [20] = assay: Total electrolytic excretion of sodium in urine of rats after peroral administration of 239 uM/Kg of drug; type: ADME, organism-based; conditions: in vivo, po
Rattus norvegicus [21] = assay: Total electrolytic excretion of sodium in urine of rats after peroral administration of 23.9 uM/Kg of drug; type: ADME, organism-based; conditions: in vivo, po
Rattus norvegicus [22] = assay: Total electrolytic excretion of potassium in urine of rats after peroral administration of 71.8 uM/Kg of drug; type: ADME, organism-based; conditions: in vivo, po
Rattus norvegicus [23] = assay: Total electrolytic excretion of chlorine in urine of rats after peroral administration of 23.9 uM/Kg of drug; type: ADME, organism-based; conditions: in vivo, po
Rattus norvegicus [24] = assay: Tested for the diuretic activity by measuring the urinary volume after peroral administering 23.9 uM/Kg of drug in rats; type: ADME, organism-based, Urine; conditions: in vivo, po
Rattus norvegicus [25] = assay: Total electrolytic excretion of potassium in urine of rats after peroral administration of 23.9 uM/Kg of drug; type: ADME, organism-based; conditions: in vivo, po
Rattus norvegicus [26] = assay: Ratio of Total electrolytic excretion of sodium and potassium in urine of rats after peroral administration of 239 uM/Kg of drug; type: ADME, organism-based; conditions: in vivo, po
Rattus norvegicus [27] = assay: Tested for the diuretic activity by measuring the urinary volume after peroral administering 239 uM/Kg of drug in rats; type: ADME, organism-based, Urine; conditions: in vivo, po
Rattus norvegicus [28] = assay: Total electrolytic excretion of chlorine in urine of rats after peroral administration of 71.8 uM/Kg of drug; type: ADME, organism-based; conditions: in vivo, po
Rattus norvegicus [29] = assay: Total electrolytic excretion of sodium in urine of rats after peroral administration of 71.8 uM/Kg of drug; type: ADME, organism-based; conditions: in vivo, po
Rattus norvegicus [30] = assay: Ratio of Total electrolytic excretion of sodium and potassium in urine of rats after peroral administration of 71.8 uM/Kg of drug; type: ADME, organism-based; conditions: in vivo, po
Rattus norvegicus [31] = organism: Rattus norvegicus; conditions: in vivo, po
Description: Total electrolytic excretion of potassium in urine of rats after peroral administration of 10.1 uM/Kg of drug

Canis familiaris [32] = assay: Total electrolytic excretion of potassium in urine of dogs after peroral administration of 3.40 uM/Kg of drug; type: ADME, organism-based, Canis lupus familiaris; conditions: dog, in vivo, po
Canis familiaris [33] = assay: Total electrolytic excretion of chlorine in urine of dogs after peroral administration of 3.40 uM/Kg of drug; type: ADME, organism-based, Canis lupus familiaris; conditions: dog, in vivo, po
Rattus norvegicus [34] = assay: Total electrolytic excretion of sodium in urine of rats after peroral administration of 1.01 uM/Kg of drug; type: ADME, organism-based; conditions: in vivo, po
Rattus norvegicus [35] = assay: Total electrolytic excretion of potassium in urine of rats after peroral administration of 34.0 uM/Kg of drug; type: ADME, organism-based; conditions: in vivo, po
Rattus norvegicus [36] = assay: Total electrolytic excretion of potassium in urine of rats after peroral administration of 3.40 uM/Kg of drug; type: ADME, organism-based; conditions: in vivo, po
Rattus norvegicus [37] = assay: Tested for the diuretic activity by measuring the urinary volume after peroral administering 1.01 uM/Kg of drug in rats; type: ADME, organism-based, Urine; conditions: in vivo, po
Rattus norvegicus [38] = assay: Tested for the diuretic activity by measuring the urinary volume after peroral administering 3.40 uM/Kg of drug in rats; type: ADME, organism-based, Urine; conditions: in vivo, po
Canis familiaris [39] = organism: Canis familiaris; conditions: dog, in vivo, po
Description: Total electrolytic excretion of potassium in urine of dogs after peroral administration of 10.1 uM/Kg of drug

Rattus norvegicus [40] = assay: Total electrolytic excretion of chlorine in urine of rats after peroral administration of 0 uM/Kg of drug; type: ADME, organism-based; conditions: in vivo, po
Rattus norvegicus [41] = assay: Total electrolytic excretion of sodium in urine of rats after peroral administration of 34.0 uM/Kg of drug; type: ADME, organism-based; conditions: in vivo, po
Rattus norvegicus [42] = assay: Total electrolytic excretion of potassium in urine of rats after peroral administration of 0 uM/Kg of drug; type: ADME, organism-based; conditions: in vivo, po
Canis familiaris [43] = assay: Tested for the diuretic activity by measuring the urinary volume after peroral administering 10.1 uM/Kg of drug in dogs; type: ADME, organism-based, Canis lupus familiaris, Urine; conditions: dog, in vivo, po
Rattus norvegicus [44] = assay: Total electrolytic excretion of chlorine in urine of rats after peroral administration of 34.0 uM/Kg of drug; type: ADME, organism-based; conditions: in vivo, po
Canis familiaris [45] = assay: Tested for the diuretic activity by measuring the urinary volume after peroral administering 3.40 uM/Kg of drug in dogs; type: ADME, organism-based, Canis lupus familiaris, Urine; conditions: dog, in vivo, po
Canis familiaris [46] = assay: Total electrolytic excretion of sodium in urine of dogs after peroral administration of 3.40 uM/Kg of drug; type: ADME, organism-based, Canis lupus familiaris; conditions: dog, in vivo, po
Rattus norvegicus [47] = assay: Total electrolytic excretion of potassium in urine of rats after peroral administration of 1.01 uM/Kg of drug; type: ADME, organism-based; conditions: in vivo, po
Rattus norvegicus [48] = assay: Total electrolytic excretion of sodium in urine of rats after peroral administration of 3.40 uM/Kg of drug; type: ADME, organism-based; conditions: in vivo, po
Rattus norvegicus [49] = assay: Tested for the diuretic activity by measuring the urinary volume after peroral administering 34.0 uM/Kg of drug in rats; type: ADME, organism-based, Urine; conditions: in vivo, po
Rattus norvegicus [50] = assay: Tested for the diuretic activity by measuring the urinary volume after peroral administering 0 uM/Kg of drug in rats; type: ADME, organism-based, Urine; conditions: in vivo, po
Rattus norvegicus [51] = assay: Total electrolytic excretion of chlorine in urine of rats after peroral administration of 3.40 uM/Kg of drug; type: ADME, organism-based; conditions: in vivo, po
Rattus norvegicus [52] = assay: Tested for the diuretic activity by measuring the urinary volume after peroral administering 10.1 uM/Kg of drug in rats; type: ADME, organism-based, Urine; conditions: in vivo, po
Rattus norvegicus [53] = assay: Total electrolytic excretion of sodium in urine of rats after peroral administration of 0 uM/Kg of drug; type: ADME, organism-based; conditions: in vivo, po

Excretion Na+ (Rattus norvegicus [1]): 0.96 m equiv
Ratio (Rattus norvegicus [2]): 10.9
Ratio (Rattus norvegicus [3]): 5.9
Excretion K+ (Rattus norvegicus [4]): 0.26 m equiv
Excretion Na+ (Rattus norvegicus [5]): 1.59 m equiv
V (Rattus norvegicus [6]): 6.4 mL
Ratio (Rattus norvegicus [7]): 3.8
Excretion Cl- (Rattus norvegicus [8]): 1.44 m equiv
Excretion Cl- (Rattus norvegicus [9]): 1.05 m equiv
V (Rattus norvegicus [10]): 8.7 mL
Excretion K+ (Rattus norvegicus [11]): 0.25 m equiv
V (Rattus norvegicus [12]): 9.3 mL
Excretion Na+ (Rattus norvegicus [13]): 1.55 m equiv
Excretion K+ (Rattus norvegicus [14]): 0.15 m equiv
Excretion Cl- (Rattus norvegicus [15]): 1.39 m equiv
SMILES: Clc1ccc(CN/C(=N/C2CCCCC2)N2CCOCC2)cc1Cl

Excretion Cl- (Rattus norvegicus [16]): 2.03 m equiv
V (Rattus norvegicus [17]): 9.5 mL
Excretion K+ (Rattus norvegicus [18]): 0.45 m equiv
Ratio (Rattus norvegicus [19]): 2.6
Excretion Na+ (Rattus norvegicus [20]): 2.02 m equiv
Excretion Na+ (Rattus norvegicus [21]): 1.02 m equiv
Excretion K+ (Rattus norvegicus [22]): 0.32 m equiv
Excretion Cl- (Rattus norvegicus [23]): 1.17 m equiv
V (Rattus norvegicus [24]): 6.6 mL
Excretion K+ (Rattus norvegicus [25]): 0.39 m equiv
Ratio (Rattus norvegicus [26]): 4.5
V (Rattus norvegicus [27]): 14 mL
Excretion Cl- (Rattus norvegicus [28]): 1.59 m equiv
Excretion Na+ (Rattus norvegicus [29]): 1.46 m equiv
Ratio (Rattus norvegicus [30]): 4.6
SMILES: FC(F)(F)c1cccc(N/C(=N/C2CCCCC2)N2CCOCC2)c1

Excretion K+ (Rattus norvegicus [31]): 0.37 m equiv
Excretion K+ (Canis familiaris [32]): 3.3 m equiv
Excretion Cl- (Canis familiaris [33]): 17.3 m equiv
Excretion Na+ (Rattus norvegicus [34]): 1.36 m equiv
Excretion K+ (Rattus norvegicus [35]): 0.4 m equiv
Excretion K+ (Rattus norvegicus [36]): 0.39 m equiv
V (Rattus norvegicus [37]): 6.8 mL
V (Rattus norvegicus [38]): 10 mL
Excretion K+ (Canis familiaris [39]): 3.4 m equiv
Excretion Cl- (Rattus norvegicus [40]): 0.8 m equiv
Excretion Na+ (Rattus norvegicus [41]): 2.03 m equiv
Excretion K+ (Rattus norvegicus [42]): 0.27 m equiv
V (Canis familiaris [43]): 85 mL
Excretion Cl- (Rattus norvegicus [44]): 2.17 m equiv
V (Canis familiaris [45]): 76 mL
Excretion Na+ (Canis familiaris [46]): 16.1 m equiv
Excretion K+ (Rattus norvegicus [47]): 0.32 m equiv
Excretion Na+ (Rattus norvegicus [48]): 1.79 m equiv
V (Rattus norvegicus [49]): 11.3 mL
V (Rattus norvegicus [50]): 4.4 mL
Excretion Cl- (Rattus norvegicus [51]): 1.91 m equiv
V (Rattus norvegicus [52]): 10.2 mL
Excretion Na+ (Rattus norvegicus [53]): 0.82 m equiv
SMILES: NS(=O)(=O)c1cc2c(cc1Cl)NCNS2(=O)=O [HYDROCHLOROTHIAZIDE]
